Data taken from patent publication US6906095B2, “Indolylalkylidenehydrazine-carboximidamide derivatives as 5-hydroxytryptamine-6 ligands” (Wyeth, priority 2002, dated 2005).

Target: T1, human cloned 5-HT6 receptors (Homo sapiens, UniProt P50406)
T1 construct: expressed in transfected cells; host or cells: Hela cells
Assay: 5-HT6 binding affinity, [3H]-LSD displacement in membranes of Hela cells
Conditions: for inhibition at 1 µM: test compound dose 1000 nM, read-out: % Inhibition
Description: The affinity of test compounds for the serotonin 5-HT6 receptor is evaluated in the following manner. Cultured Hela cells expressing human cloned 5-HT6 receptors are harvested and centrifuged at low speed (1,000×g) for 10.0 min to remove the culture media. The harvested cells are suspended in half volume of fresh physiological phosphate buffered saline solution and recentrifuged at the same speed. This operation is repeated. The collected cells are then homogenized in ten volumes of 50 mM Tris.HCl (pH 7.4) and 0.5 mM EDTA. The homogenate is centrifuged at 40,000×g for 30.0 min and the precipitate is collected. The obtained pellet is resuspended in 10 volumes of Tris.HCl buffer and recentrifuged at the same speed. The final pellet is suspended in a small volume of Tris.HCl buffer and the tissue protein content is determined in aliquots of 10-25 μl volumes. Bovine Serum Albumin is used as the standard in the protein determination according to the method described in Lowry et al., J. Biol. Chem., 193:265 (1951). The volume of the suspended cell membranes is adjusted to give a tissue protein concentration of 1.0 mg/ml of suspension. The prepared membrane suspension (10 times concentrated) is aliquoted in 1.0 ml volumes and stored at −70° C. until used in subsequent binding experiments.
The reaction is allowed to proceed in the dark for 120 min at room temperature, at which time, the bound ligand-receptor complex is filtered off on a 96 well unifilter with a Packard Filtermate® 196 Harvester. The bound complex caught on the filter disk is allowed to air dry and the radioactivity is measured in a Packard TopCount® equipped with six photomultiplier detectors, after the addition of 40.0 μl Microscint®-20 scintillant to each shallow well. The unifilter plate is heat-sealed and counted in a PackardTopCount® with a tritium efficiency of 31.0%.
Specific binding to the 5-HT6 receptor is defined as the total radioactivity bound less the amount bound in the presence of 10.0 μM unlabeled methiothepin. Binding in the presence of varying concentrations of test compound is expressed as a percentage of specific binding in the absence of test compound. The results are plotted as logit % bound versus log concentration of test compound. Nonlinear regression analysis of data points with a computer assisted program Prism® yields both the IC50 and the Ki values of test compounds with 95% confidence limits.
The amount of displacement by the test compound is given in percent (%) inhibition and is derived from the following equation: [formula] where B0 is the amount of CPM bound in the presence of the testing agent. NSB represents the CPM bound in the presence of a saturating concentration of a displacer and TB represents the total amount of CPM bound at zero (0) concentration of test compound.
Alternatively, a linear regression line of decline of data points is plotted, from which the IC50 value can be read off and the Ki value determined by solving the following equation: [formula] where L is the concentration of the radioactive ligand used and KD is the dissociation constant of the ligand for the receptor, both expressed in nM.

[1] = test compound dose 100 nM, [3H]-LSD 3.0 nM

T1 sequence (P50406 whole entry): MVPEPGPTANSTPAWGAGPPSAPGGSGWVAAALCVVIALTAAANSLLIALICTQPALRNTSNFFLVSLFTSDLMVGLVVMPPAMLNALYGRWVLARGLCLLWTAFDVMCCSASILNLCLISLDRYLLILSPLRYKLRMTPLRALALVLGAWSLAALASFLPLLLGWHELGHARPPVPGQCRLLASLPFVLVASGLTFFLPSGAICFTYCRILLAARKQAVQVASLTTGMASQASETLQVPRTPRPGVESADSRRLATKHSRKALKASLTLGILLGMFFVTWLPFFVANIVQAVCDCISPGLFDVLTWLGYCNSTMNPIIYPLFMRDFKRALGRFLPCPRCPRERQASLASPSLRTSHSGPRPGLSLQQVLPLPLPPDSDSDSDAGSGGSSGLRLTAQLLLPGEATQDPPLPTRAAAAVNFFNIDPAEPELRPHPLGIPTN

| Compound | inhibition at 0.1 µM [1] [%] | also measured |
| --- | --- | --- |
| CC(=NNC(=N)N)c1cn(S(=O)(=O)c2ccc(Br)s2)c2ccccc12 [Example 33, 2-(1-{1-[(5-bromothien-2-yl)sulfonyl]-1H-indol-3-yl}ethylidene)hydrazinecarboximidamide] | 76.4 | Ki: 19 nM |
| COc1ccc(Cl)cc1S(=O)(=O)n1cc(C(C)=NNC(=N)N)c2ccccc21 [Example 34, 2-(1-{1-[(5-chloro-2-methoxyphenyl)sulfonyl]-1H-indol-3-yl}ethylidene)hydrazinecarboximidamide] | 48 |  |
| CC(=NNC(=N)N)c1cn(S(=O)(=O)c2sc3ccc(Cl)cc3c2C)c2ccccc12 [Example 35, 2-(1-{1-[(5-chloro-3-methyl-1-benzothien-2-yl)sulfonyl]-1H-indol-3-yl}ethylidene)hydrazinecarboximidamide] | 39.1 |  |
| CC(=NNC(=N)N)c1cn(S(=O)(=O)c2c(Cl)nc3sccn23)c2ccccc12 [Example 36, 2-(1-{1-[(6-chloroimidazo[2,1-b][1,3]thiazol-5-yl)sulfonyl]-1H-indol-3-yl}ethylidene)hydrazinecarboximidamide] | 86.4 | Ki: 8 nM |
| CC(=NNC(=N)N)c1cn(S(=O)(=O)c2ccc(Cl)s2)c2ccccc12 [Example 37, 2-(1-{1-[(5-chlorothien-2-yl)sulfonyl]-1H-indol-3-yl}ethylidene)hydrazinecarboximidamide] | 75.2 | Ki: 25 nM |
| CC(=NNC(=N)N)c1cn(S(=O)(=O)c2cccc3c(N(C)C)cccc23)c2ccccc12 [Example 38, 2-[1-(1-{[5-(dimethylamino)-1-naphthyl]sulfonyl}-1H-indol-3-yl)ethylidene]hydrazinecarboximidamide] | 25.8 |  |
| CC(=NNC(=N)N)c1cn(S(=O)(=O)c2cc(Br)c(Br)s2)c2ccccc12 [Example 39, 2-(1-{1-[(4,5-dibromothien-2-yl)sulfonyl]-1H-indol-3-yl}ethylidene)hydrazinecarboximidamide] | 62.1 |  |
| CC(=NNC(=N)N)c1cn(S(=O)(=O)c2ccc(-c3cc(C(F)(F)F)n(C)n3)s2)c2ccccc12 [Example 45, 2-{1-[1-({5-[1-methyl-5-(trifluoromethyl)-1H-pyrazol-3-yl]thien-2-yl}sulfony)-1H-indol-3-yl]ethylidene}hydrazinecarboximidamide] |  | % Inhibition [1]: 23.5% |
| CC(=NNC(=N)N)c1cn(S(=O)(=O)c2ccccc2[N+](=O)[O-])c2ccccc12 [Example 51, 2-(1-{1-[(2-nitrophenyl)sulfonyl]-1H-indol-3-yl}ethylidene)hydrazinecarboximidamide] | 70.1 |  |
| CC(=NNC(=N)N)c1cn(S(=O)(=O)c2ccc(-c3ccccn3)s2)c2ccccc12 [Example 53, 2-(1-{1-[(5-pyridin-2-ylthien-2-yl)sulfonyl]-1H-indol-3-yl}ethylidene)hydrazinecarboximidamide] | 38.4 |  |
| CC(=NNC(=N)N)c1cn(S(=O)(=O)c2ccc(OC(F)(F)F)cc2)c2ccccc12 [Example 54, 2-[1-(1-{[4-(trifluoromethoxy)phenyl]sulfonyl}-1H-indol-3-yl)ethylidene]hydrazinecarboximidamide] | 26.2 |  |
| CCCCC(=NNC(=N)N)c1cn(S(C)(=O)=O)c2ccccc12 [Example 56, 2-{1-[1-(methylsulfonyl)-1H-indol-3-yl]pentylidene}hydrazinecarboximidamide] |  | inhibition at 1 µM ([3H]-LSD 3.0 nM): 76.9% |
| CS(=O)(=O)n1cc(C(=NNC(=N)N)C2CC2)c2ccccc21 [Example 57, 2-{cyclopropyl[1-(methylsulfonyl)-1H-indol-3-yl]methylidene}hydrazinecarboximidamide] | 40.4 |  |
| CCCCC(=NNC(=N)N)c1cn(S(=O)(=O)CCCC)c2ccccc12 [Example 59, 2-{1-[1-(butylsulfonyl)-1H-indol-3-yl]pentylidene}hydrazinecarboximidamide] |  | inhibition at 1 µM ([3H]-LSD 3.0 nM): 77.7% |
| COc1ccc(S(=O)(=O)n2cc(C(C)=NNC(=N)N)c3ccccc32)cc1 [Example 61, 2-(1-{1-[(4-methoxyphenyl)sulfonyl]-1H-indol-3-yl}ethylidene)hydrazinecarboximidamide] |  | inhibition at 1 µM ([3H]-LSD 3.0 nM): 83.6% |
| CCCCC(=NNC(=N)N)c1cn(S(=O)(=O)c2ccc(OC)cc2)c2ccccc12 [Example 62, 2-(1-{1-[(4-methoxyphenyl)sulfonyl]-1H-indol-3-yl}pentylidene)hydrazinecarboximidamide] |  | inhibition at 1 µM ([3H]-LSD 3.0 nM): 68.3% |

Second part, led by results:

| inhibition at 0.1 µM [1] [%] | Compound | also measured |
| --- | --- | --- |
| 33.3 | CC(=NNC(=N)N)c1cn(S(=O)(=O)c2cc(Cl)ccc2Cl)c2ccccc12 [Example 40, 2-(1-{1-[(2,5-dichlorophenyl)sulfonyl]-1H-indol-3-yl}ethylidene)hydrazinecarboximidamide] |  |
| 55 | CC(=NNC(=N)N)c1cn(S(=O)(=O)c2cc(Cl)sc2Cl)c2ccccc12 [Example 41, 2-(1-{1-[(2,5-dichlorothien-3-yl)sulfonyl]-1H-indol-3-yl}ethylidene)hydrazinecarboximidamide] |  |
| 46.3 | CC(=NNC(=N)N)c1cn(S(=O)(=O)c2cc(Cl)c(Cl)s2)c2ccccc12 [Example 42, 2-(1-{1-[(4,5-dichlorothien-2-yl)sulfonyl]-1H-indol-3-yl}ethylidene)hydrazinecarboximidamide] |  |
| 68.9 | CC(=NNC(=N)N)c1cn(S(=O)(=O)c2c(C)noc2C)c2ccccc12 [Example 43, 2-(1-{1-[(3,5-dimethylisoxazol-4-yl)sulfonyl]-1H-indol-3-yl}ethylidene)hydrazinecarboximidamide] |  |
| 75.5 | CC(=NNC(=N)N)c1cn(S(=O)(=O)c2ccc(F)cc2)c2ccccc12 [Example 44, 2-(1-{1-[(4-fluorophenyl)sulfonyl]-1H-indol-3-yl}ethylidene)hydrazinecarboximidamide] | Ki: 33 nM |
| 41 | CC(=NNC(=N)N)c1cn(S(=O)(=O)c2cc([N+](=O)[O-])ccc2C)c2ccccc12 [Example 46, 2-(1-{1-[(2-methyl-5-nitrophenyl)sulfonyl]-1H-indol-3-yl}ethylidene)hydrazinecarboximidamide] |  |
| 81.1 | CC(=NNC(=N)N)c1cn(S(=O)(=O)c2cn(C)cn2)c2ccccc12 [Example 47, 2-(1-{1-[(1-methyl-1H-imidazol-4-yl)sulfonyl]-1H-indol-3-yl}ethylidene)hydrazinecarboximidamide] | Ki: 46 nM |
| 43.9 | CC(=NNC(=N)N)c1cn(S(=O)(=O)c2ccc(S(C)(=O)=O)cc2)c2ccccc12 [Example 48, 2-[1-(1-{[4-(methylsulfonyl)phenyl]sulfonyl}-1H-indol-3-yl)ethylidene]hydrazinecarboximidamide] |  |
| 33 | CSc1nccc(-c2ccc(S(=O)(=O)n3cc(C(C)=NNC(=N)N)c4ccccc43)s2)n1 [Example 49, 2-{1-[1-({5-[2-(methylthio)pyrimidin-4-yl]thien-2-yl}sulfonyl)-1H-indol-3-yl]ethylidene}-hydrazinecarboximidamide] |  |
| 63.5 | CC(=NNC(=N)N)c1cn(S(=O)(=O)c2cccc3ccccc23)c2ccccc12 [Example 50, 2-{1-[1-(1-naphthylsulfonyl)-1H-indol-3-yl]ethylidene}hydrazinecarboximidamide] |  |
| 28.2 | CC(=NNC(=N)N)c1cn(S(=O)(=O)c2ccc([N+](=O)[O-])cc2)c2ccccc12 [Example 52, 2-(1-{1-[(4-nitrophenyl)sulfonyl]-1H-indol-3-yl}ethylidene)hydrazinecarboximidamide] |  |
| 68.2 | CC(=NNC(=N)N)c1cn(S(C)(=O)=O)c2ccccc12 [Example 55, 2-{1-[1-(methylsulfonyl)-1H-indol-3-yl]ethylidene}hydrazinecarboximidamide] |  |
| 78.3 | CCCCS(=O)(=O)n1cc(C(C)=NNC(=N)N)c2ccccc21 [Example 58, 2-{1-[1-(butylsulfonyl)-1H-indol-3-yl]ethylidene}hydrazinecarboximidamide] |  |
| 62.6 | CCCCS(=O)(=O)n1cc(C(=NNC(=N)N)C2CC2)c2ccccc21 [Example 60, 2-[[1-(butylsulfonyl)-1H-indol-3-yl](cyclopropyl)methylidene]hydrazinecarboximidamide] |  |
